# Experimental data: the OPERA property sets (Mansouri et al. 2018)
row,Compound,logP
1,Cc1nc(-c2ccc(C(C)C(=O)O)cc2)sc1C (stereo unspecified),3.36
2,CCCCc1csc(-c2ccc(C(C)C(=O)O)cc2Cl)n1 (stereo unspecified),5.36
3,CCc1csc(-c2ccc(C(C)C(=O)O)cc2)n1 (stereo unspecified),3.75
4,CCc1csc(-c2ccc(C(C)C(=O)O)cc2Cl)n1 (stereo unspecified),4.28
5,CC(C(=O)O)c1ccc(-c2nc(C(=O)N(C)C)cs2)cc1 (stereo unspecified),2.15
6,CC(C)c1csc(-c2ccc(C(C)C(=O)O)cc2)n1 (stereo unspecified),4.29
7,COCc1csc(-c2ccc(C(C)C(=O)O)cc2)n1 (stereo unspecified),2.56
8,CC(C(=O)O)c1ccc(-c2nccs2)c(Br)c1 (stereo unspecified),3.35
9,Cc1csc(-c2ccc(C(C)C(=O)O)cc2Cl)n1 (stereo unspecified),3.65
10,CCc1csc(-c2ccc(C(C)C(=O)O)cc2F)n1 (stereo unspecified),4.16
11,CCc1cnc(-c2ccc(C(C)C(=O)O)cc2)s1 (stereo unspecified),3.72
12,CC(C(=O)O)c1ccc(-c2nc(C(F)(F)F)cs2)cc1 (stereo unspecified),3.78
13,CCc1nc(-c2ccc(C(C)C(=O)O)cc2Cl)sc1C (stereo unspecified),4.62
14,CC(C(=O)O)c1ccc(-c2nccs2)c([N+](=O)[O-])c1 (stereo unspecified),2.06
15,CCc1nc(-c2ccc(C(C)C(=O)O)cc2F)sc1C (stereo unspecified),4.44
16,CC(C(=O)O)c1ccc(-c2nccs2)cc1 (stereo unspecified),2.79
17,CNC(=O)c1csc(-c2ccc(C(C)C(=O)O)cc2)n1 (stereo unspecified),2.45
18,Cc1cc(C(C)C(=O)O)ccc1-c1nccs1 (stereo unspecified),3.06
19,Cc1nc(-c2ccc(C(C)C(=O)O)cc2Cl)sc1C (stereo unspecified),3.94
20,Cc1csc(-c2ccc(C(C)C(=O)O)cc2F)n1 (stereo unspecified),3.52
21,CC(C(=O)O)c1ccc(-c2nccs2)c(F)c1 (stereo unspecified),3.14
22,CC(C(=O)O)c1ccc(-c2nccs2)c(N)c1 (stereo unspecified),2.45
23,CC(C(=O)O)c1ccc(-c2nccs2)c(O)c1 (stereo unspecified),3.18
24,Cc1nc(-c2ccc(C(C)C(=O)O)cc2F)sc1C (stereo unspecified),3.74

# Now from value to compound:
row,logP,Compound
1,3.99,CCc1nc(-c2ccc(C(C)C(=O)O)cc2)sc1C (stereo unspecified)
2,3.66,Cc1cnc(-c2ccc(C(C)C(=O)O)cc2Cl)s1 (stereo unspecified)
3,4.1,CCc1cnc(-c2ccc(C(C)C(=O)O)cc2F)s1 (stereo unspecified)
4,3.55,Cc1cnc(-c2ccc(C(C)C(=O)O)cc2F)s1 (stereo unspecified)
5,4.83,CCCCc1csc(-c2ccc(C(C)C(=O)O)cc2)n1 (stereo unspecified)
6,5.24,CCCCc1csc(-c2ccc(C(C)C(=O)O)cc2F)n1 (stereo unspecified)
7,4.78,CC(C)c1csc(-c2ccc(C(C)C(=O)O)cc2Cl)n1 (stereo unspecified)
8,4.39,CCc1cnc(-c2ccc(C(C)C(=O)O)cc2Cl)s1 (stereo unspecified)
9,3.39,CC(C(=O)O)c1ccc(-c2nccs2)c(Cl)c1 (stereo unspecified)
10,4.41,CC(C(=O)O)c1ccc(-c2nc3c(s2)CCCC3)cc1 (stereo unspecified)
11,4.62,CC(C)c1csc(-c2ccc(C(C)C(=O)O)cc2F)n1 (stereo unspecified)
12,4.95,CC(C(=O)O)c1ccc(-c2nc(-c3ccccc3)cs2)cc1 (stereo unspecified)
13,3.02,CSc1cc(C(C)C(=O)O)ccc1-c1nccs1 (stereo unspecified)
14,3.03,Cc1csc(-c2ccc(C(C)C(=O)O)cc2)n1 (stereo unspecified)
15,3.15,Cc1cnc(-c2ccc(C(C)C(=O)O)cc2)s1 (stereo unspecified)
16,4.11,C=CCc1csc(-c2ccc(C(C)C(=O)O)cc2)n1 (stereo unspecified)
17,3.62,C=Cc1csc(-c2ccc(C(C)C(=O)O)cc2)n1 (stereo unspecified)
18,3.06,CC(C(=O)O)c1ccc(-c2nccs2)c(C(F)(F)F)c1 (stereo unspecified)
19,2.17,CC(C(=O)O)c1ccc(-c2nc(C(N)=O)cs2)cc1 (stereo unspecified)
20,2.65,CC(=O)c1csc(-c2ccc(C(C)C(=O)O)cc2)n1 (stereo unspecified)
21,2.47,COc1cc(C(C)C(=O)O)ccc1-c1nccs1 (stereo unspecified)
22,2.25,CC(C(=O)O)c1ccc(-c2nc(CO)cs2)cc1 (stereo unspecified)
